# From patent US9738591B2, “Antimicrobial compounds” (priority 2009, dated 2017)
# “And” between values parts separate entries of the source, which are not always exact repeats. Identical values can stand only once.
# Assays:
# [1] = tested on: Staphylococcus aureus NCTC 6571/ATCC 9144; experiment: Disk diffusion; settings: for zones of inhibition with S aureus NCTC6571: applied at 10 mg/ml; for Zone of Inhibition: S. aureus NCTC 6571; for Zone of inhibition, S. aureus NCTC 6571: analogues in DMSO, protocol of Example 3
# [2] = tested on: Listeria monocytogenes NCTC 7973; experiment: Disk diffusion; settings: L. monocytogenes NCTC 7973
# [3] = tested on: Bacillus subtilis ATCC 6633; experiment: Disk diffusion; settings: B. subtilis ATCC 6633
# [4] = tested on: Streptococcus pneumoniae ATCC 49619; experiment: Disk diffusion; settings: S. pneumoniae ATCC 49619
# [5] = tested on: Citrobacter freundii NCTC 9750/ATCC 8090; experiment: Disk diffusion; settings: C. freundii NCTC 9750
# [6] = tested on: Proteus mirabilis NCTC 10975; experiment: Disk diffusion; settings: P. mirabilis NCTC 10975
# [7] = tested on: Escherichia coli NCTC 10538; experiment: Disk diffusion; settings: E. coli NCTC 10538
# [8] = tested on: Staphylococcus aureus (methicillin resistant) NCTC 10442; experiment: Disk diffusion; settings: S. aureus NCTC 10442
# [9] = tested on: Enterococcus faecalis NCTC 775; experiment: Disk diffusion; settings: E. faecalis NCTC 775
# [10] = tested on: Micrococcus luteus ATCC 10240; experiment: Disk diffusion; settings: M. luteus ATCC 10240
# [11] = tested on: Staphylococcus xylosus ATCC 29971; experiment: Disk diffusion; settings: S. xylosus ATCC 29971
# [12] = tested on: Pseudomonas aeruginosa NCTC 10662; experiment: Disk diffusion; settings: P. aeruginosa NCTC 10662
# [13] = tested on: Shigella flexneri NCTC 8192; experiment: Disk diffusion; format: cell-based; settings: S. flexneri NCTC 8192
# Procedure: Plates were incubated at 35° C.
# [14] = tested on: Moraxella catarrhalis NCTC 3625; experiment: Disk diffusion; settings: M. catarrhalis NCTC 3625
# [15] = tested on: Aeromonas hydrophila NCTC 8049/ATCC 7966; experiment: Disk diffusion; settings: A. hydrophila NCTC 8049
# [16] = tested on: Stenotrophomonas maltophilia ATCC 13637; experiment: Disk diffusion; settings: S. maltophilia ATCC 13637
# [17] = tested on: Streptococcus pyogenes NCTC 8191; experiment: Disk diffusion; settings: S. pyogenes NCTC 8191
# K. pneumoniae NCTC 10896 = experiment: Disk diffusion
# [18] = tested on: Staphylococcus epidermidis ATCC 12228; experiment: Disk diffusion; settings: S. epidermidis ATCC 1228
# C. albicans ATCC 90028 = experiment: Disk diffusion
# [19] = tested on: Salmonella enterica subsp. enterica serovar Typhimurium ATCC 13311; experiment: Disk diffusion; settings: S. typhimurium ATCC 13311
# [20] = tested on: Bacillus cereus ATCC 13061; experiment: Disk diffusion; settings: B. cereus ATCC 13061
# [21] = tested on: V. cholerae non-01 clinical; experiment: Disk diffusion
# [22] = tested on: Yersinia enterocolitica clinical 26609; experiment: Disk diffusion; settings: Y. enterocolitica clinical 26609
# [23] = tested on: A. calcoaceticus ATCC 15308; experiment: Disk diffusion
# E. coli NCTC 10418 = experiment: Disk diffusion; settings: for Zone of Inhibition: E. coli NCTC 10418; for Zone of inhibition, E. coli NCTC 10418: analogues in DMSO, protocol of Example 3
# [24] = tested on: S. typhimurium TA98, TA100 and TA1535; experiment: Ames Test for mutagenic activity, no metabolic activation; settings: 5 μg/plate, duplicate plates
smiles,measurement,setting,value
O=C(O)c1ccc(/C=C/c2ccc(/C=C/c3ccc(C(=O)O)cc3)cc2)cc1 [DSB001],zones of inhibition with S aureus NCTC6571,[1],no zones of inhibition
O=C(O)c1ccc(CCc2ccc(CCc3ccc(C(=O)O)cc3)c(CCc3ccc(C(=O)O)cc3)c2)cc1 [TSB068],Zone of Inhibition,[2],15 mm
same,Zone of Inhibition,[3],0 mm
same,Zone of Inhibition,[4],23 mm
same,Zone of Inhibition,[5],0 mm
same,Zone of Inhibition,[6],0 mm
same,Zone of Inhibition,[7],0 mm
same,Zone of Inhibition,[8],0 mm
same,Zone of Inhibition,[9],0 mm
same,Zone of Inhibition,[10],8 mm
same,Zone of Inhibition,[11],0 mm
same,Zone of Inhibition,[12],0 mm
same,Zone of Inhibition,[13],0 mm
same,Zone of Inhibition,[14],32 mm
same,Zone of Inhibition,[15],7 mm
same,Zone of Inhibition,[16],0 mm
same,Zone of Inhibition,[17],20 mm
same,Zone of Inhibition,K. pneumoniae NCTC 10896,0 mm
same,Zone of Inhibition,[18],0 mm
same,Zone of Inhibition,C. albicans ATCC 90028,0 mm
same,Zone of Inhibition,[19],0 mm
same,Zone of Inhibition,[20],0 mm
same,Zone of Inhibition,[1],8 mm
same,Zone of Inhibition,[21],0 mm
same,Zone of Inhibition,[22],0 mm
same,Zone of Inhibition,[23],0 mm
same,Zone of Inhibition,E. coli NCTC 10418,0 mm
N#Cc1ccc(/C=C/c2cc(/C=C/c3ccc(C#N)cc3)cc(/C=C/c3ccc(C#N)cc3)c2)cc1 [TSB063],"Zone of inhibition, S. aureus NCTC 6571",[1],0 mm
same,"Zone of inhibition, E. coli NCTC 10418",E. coli NCTC 10418,0 mm
CCCCOC(=O)/C=C/c1ccc(-c2cc(-c3ccc(/C=C/C(=O)OCCCC)cc3)cc(-c3ccc(/C=C/C(=O)OCCCC)cc3)c2)cc1 [TCB003],"Zone of inhibition, S. aureus NCTC 6571",[1],0 mm
O=C(O)/C=C/c1ccc(-c2cc(-c3ccc(/C=C/C(=O)O)cc3)cc(-c3ccc(/C=C/C(=O)O)cc3)c2)cc1 [TCB001],"Zone of inhibition, S. aureus NCTC 6571",[1],11 mm
CCCCOC(=O)/C=C/c1ccc(-c2nc(-c3ccc(/C=C/C(=O)OCCCC)cc3)nc(-c3ccc(/C=C/C(=O)OCCCC)cc3)n2)cc1 [TCT003],"Zone of inhibition, S. aureus NCTC 6571",[1],0 mm
same,"Zone of inhibition, E. coli NCTC 10418",E. coli NCTC 10418,0 mm
C(=C\c1cc(/C=C/c2ccncc2)cc(/C=C/c2ccncc2)c1)/c1ccncc1 [TSB053],"Zone of inhibition, S. aureus NCTC 6571",[1],0 mm
COc1cc(/C=C/c2cc(/C=C/c3cc(OC)c(OC)c(OC)c3)cc(/C=C/c3cc(OC)c(OC)c(OC)c3)c2)cc(OC)c1OC [TSB049],"Zone of inhibition, S. aureus NCTC 6571",[1],0 mm
same,"Zone of inhibition, E. coli NCTC 10418",E. coli NCTC 10418,0 mm
O=C(O)c1ccc(CCc2cc(CCc3ccc(C(=O)O)cc3)c(CCc3ccc(C(=O)O)cc3)cc2CCc2ccc(C(=O)O)cc2)cc1 [QSB002],zones of inhibition with S aureus NCTC6571,[1],no zones of inhibition
CC(C)Oc1ccc(/C=C/c2cc(/C=C/c3ccc(OC(C)C)c(OC(C)C)c3)cc(/C=C/c3ccc(OC(C)C)c(OC(C)C)c3)c2)cc1OC(C)C [TSB041],"Zone of inhibition, S. aureus NCTC 6571",[1],0 mm
same,"Zone of inhibition, E. coli NCTC 10418",E. coli NCTC 10418,0 mm
O=C(O)c1ccc(/C=C/c2cc(/C=C/c3ccc(C(=O)O)cc3)c(/C=C/c3ccc(C(=O)O)cc3)cc2/C=C/c2ccc(C(=O)O)cc2)cc1 [QSB001],Zone of Inhibition,[2],0 mm
same,Zone of Inhibition,[3],0 mm
same,Zone of Inhibition,[4],9 mm
same,Zone of Inhibition,[5],8.5 mm
same,Zone of Inhibition,[6],0 mm
same,Zone of Inhibition,[7],7.5 mm
same,Zone of Inhibition,[8],0 mm
same,Zone of Inhibition,[9],0 mm
same,Zone of Inhibition,[10],0 mm
same,Zone of Inhibition,[11],0 mm
same,Zone of Inhibition,[12],0 mm
same,Zone of Inhibition,[13],0 mm
same,Zone of Inhibition,[14],18 mm
same,Zone of Inhibition,[15],7 mm
same,Zone of Inhibition,[16],8 mm
same,Zone of Inhibition,[17],8 mm
same,Zone of Inhibition,K. pneumoniae NCTC 10896,8 mm
same,Zone of Inhibition,[18],0 mm
same,Zone of Inhibition,C. albicans ATCC 90028,0 mm
same,Zone of Inhibition,[19],8.5 mm
same,Zone of Inhibition,[20],0 mm
same,Zone of Inhibition,[1],8.5 mm
same,Zone of Inhibition,[21],8 mm
same,Zone of Inhibition,[22],7.5 mm
same,Zone of Inhibition,[23],0 mm
same,Zone of Inhibition,E. coli NCTC 10418,7 mm
CC(=O)c1ccc(/C=C/c2cc(/C=C/c3ccc(C(C)=O)cc3)cc(/C=C/c3ccc(C(C)=O)cc3)c2)cc1 [TSB025],"Zone of inhibition, S. aureus NCTC 6571",[1],0 mm
same,"Zone of inhibition, E. coli NCTC 10418",E. coli NCTC 10418,0 mm
CC(=O)Oc1ccc(/C=C/c2cc(/C=C/c3ccc(OC(C)=O)cc3)cc(/C=C/c3ccc(OC(C)=O)cc3)c2)cc1 [TSB023],"Zone of inhibition, S. aureus NCTC 6571",[1],0 mm
same,"Zone of inhibition, E. coli NCTC 10418",E. coli NCTC 10418,0 mm
Cc1ccc(/C=C/c2cc(/C=C/c3ccc(C)cc3)cc(/C=C/c3ccc(C)cc3)c2)cc1 [TSB037],"Zone of inhibition, S. aureus NCTC 6571",[1],0 mm
same,"Zone of inhibition, E. coli NCTC 10418",E. coli NCTC 10418,0 mm
"[N-]=[N+]=[N-] [sodium azide, reference compound]","Number of colonies, Positive Control","[24]; TA100, negative control 113, 96",350 and 360
same,"Number of colonies, Positive Control","[24]; TA1535, negative control 28, 29",600
O=C(O)/C=C/c1cc(/C=C/C(=O)O)cc(/C=C/C(=O)O)c1 [TAB001],"Zone of inhibition, S. aureus NCTC 6571",[1],0 mm
O=C(O)c1ccc(CCc2cccc(CCc3ccc(C(=O)O)cc3)c2)cc1 [DSB004],zones of inhibition with S aureus NCTC6571,[1],no zones of inhibition
O=C(O)c1ccc(CCc2ccc(CCc3ccc(C(=O)O)cc3)cc2)cc1 [DSD002],zones of inhibition with S aureus NCTC6571,[1],no zones of inhibition
COc1ccc(/C=C/c2cc(/C=C/c3ccc(OC)cc3)cc(/C=C/c3ccc(OC)cc3)c2)cc1 [TSB019],"Zone of inhibition, S. aureus NCTC 6571",[1],0 mm
same,"Zone of inhibition, E. coli NCTC 10418",E. coli NCTC 10418,0 mm
CN(C)c1ccc(/C=C/c2cc(/C=C/c3ccc(N(C)C)cc3)cc(/C=C/c3ccc(N(C)C)cc3)c2)cc1 [TSB009],"Zone of inhibition, S. aureus NCTC 6571",[1],0 mm
C(=C\c1cc(/C=C/c2ccc(-c3nnn[nH]3)cc2)cc(/C=C/c2ccc(-c3nnn[nH]3)cc2)c1)/c1ccc(-c2nnn[nH]2)cc1 [TSB065],"Zone of inhibition, S. aureus NCTC 6571",[1],14 mm
same,"Zone of inhibition, E. coli NCTC 10418",E. coli NCTC 10418,0 mm
